# Where two headings read alike, the source gives them in different places.
# Tests used:
# IMR-32 cells = assay: Compound cytotoxicity to IMR-32 cells in the absence of WT-TTR; format: cell-based, human
# Procedure: Metabolically active cells reduce the resazurin redox dye to resorufin, a soluble fluorescent compound. [O'Brien et al., Eur. J. Biochem. 267:5421-5426 (2002)] The percentage of viable cells was calculated relative to cells treated with vehicle only (cell culture media and DMSO=100% viable).
# (§1) The human neuroblastoma IMR-32 cell line (CCL-127 ATCC) was maintained in Opti-MEM® medium (Invitrogen), supplemented with 5% FBS, 1 mM Hepes buffer, 2 mM L-glutamine, 100 units/mL penicillin, 100 μg/mL streptomycin and 0.05 mg/mL CaCl2 (complete cell medium). Cells were seeded in black wall, clear bottom, tissue culture treated 96-well plates (Costar) at a density of 6,000 cells/well in complete cell medium and incubated overnight (about 18 hours) at 37° C.
# (§2) Recombinant WT-TTR purified in the cold was used as the cytotoxic insult. The protein was buffer-exchanged in Hanks' Balanced Salt Solution (HBSS, Mediatech, Manassas, Va.) at 10° C. using a Centriprep® filter device (10 kDa MWCO, Millipore). Compounds (16 mM in DMSO) were diluted 1:1000 with WT-TTR (16 μM in HBSS, filter sterilized) or with HBSS only, vortexed and incubated for 18 hours at 37° C. WT-TTR (16 μM in HBSS) containing the same amount of DMSO was prepared in parallel and incubated under the same conditions.
# (§3) The medium was removed from the cells and replaced immediately by the TTR/compound mixtures or HBSS previously diluted 1:1 in Opti-MEM® supplemented with 0.8 mg/mL BSA, 2 mM Hepes buffer, 4 mM L-glutamine, 200 units/mL penicillin, 200 μg/mL streptomycin and 0.1 mg/mL CaCl2. The cells were incubated 24 hours at 37° C. Cell viability was evaluated by a resazurin reduction assay.
# (§4) Briefly, 10 μL of resazurin (500 μM, PBS) was added to each well and fluorescence quantified in a plate reader (Ex/Em 530/590 nm, Tecan Safire 2, Austria) after 1 hour of incubation at 37° C. Cell viability was calculated as percentage of fluorescence relative to cells treated only with vehicle (100% viability) after subtraction of blank fluorescence (wells without cells). Averages and standard errors from 2 independently performed studies, each performed at least in triplicate, were calculated using GraphPrism (San Diego, Calif., US).
# [1] = system: WT-TTR cytotoxicity in human IMR-32 neuroblastoma cells; assay: Inhibition of WT-TTR cytotoxicity in IMR-32 cells (resazurin reduction); format: cell-based; conditions: WT-TTR 8 μM, compounds 2, 4, 6 and 8 μM, 24 hours
# Procedure: Cell viability was measured after 24 hours by a resazurin reduction assay.
# as §1, §2, §3, §4
# K15A-TTR [2] = biological target: T1, K15A-TTR (Homo sapiens, UniProt P02766, K35A); assay: Acid-mediated K15A-TTR fibril formation with non-covalent stabilizers; format: biochemical; conditions: compound 7.2 μM, 72 hours, pH 4.4
# T1 construct: composed of 127-residue β-sheet-rich subunits; made in house
# Procedure: Compounds (5 μL of 1.44 mM solution in DMSO) were added to 495 μL of TTR (7.2 μM, in 10 mM sodium phosphate, 100 mM KCl, 1 mM EDTA, pH 7.0). The mixtures were vortexed and incubated (maintained) for 18 hours at 25° C. An acidic buffer solution (500 μL, 100 mM acetate, 100 mM KCl, 1 mM EDTA, pH 4.2) was added to obtain a final pH value of 4.4, and the mixtures were incubated at 37° C. for 72 hours without agitation. The solutions were vortexed to evenly distribute any precipitate, and turbidity was measured at 400 nm using a Hewlett Packard model 8453 UV-VIS Spectrophotometer.
# WT-TTR [3] = biological target: T2, WT-TTR (Homo sapiens, UniProt P02766); assay: RP-HPLC analysis of conjugation to recombinant WT-TTR; format: binding; conditions: data not shown
# T2 construct: composed of 127-residue β-sheet-rich subunits; made in house; host or cells: E. coli
# Procedure: The ability of candidate covalent kinetic stabilizers Compounds 1-4 to form a chemoselective amide bond with the K15 residue of WT-TTR was assessed by incubating the recombinant WT-TTR tetramer (3.6 μM) with Compounds 1-4 (7.2 μM, the minimum concentration required to covalently modify both T4 binding sites) for 18 hours at 25° C. The stilbene-TTR conjugate was quantified by reverse-phase (RP)-HPLC using a denaturing acetonitrile gradient.
# Recombinant WT-TTR was expressed as described previously [Lashuel et al., Biochemistry 38:13560-13573 (1999)]. For analysis of test compounds with TTR, each compound (1.5 μL in DMSO, 1.44 mM) was added to 300 μL of WT-TTR or K15A mutant TTR (3.6 μM, 10 mM sodium phosphate, 100 mM KCl, 1 mM EDTA, pH 7.0). The samples were vortexed, and incubated for 18 hours at 25° C. Reverse phase high performance liquid chromatography (RP-HPLC) was performed on a Water 600 E multi-solvent delivery system, using a Waters 486 tunable absorbance detector, a 717 autosampler, and a ThermoHypersil Keystone Betabasic-18 column μ150 Å pore size, 3 μm particle size, and mobile phase A; 0.1% TFA in 95% H2O+5% CH3CN and mobile phase B, 0.1% TFA in 95% CH3CN+5% H2O). Linear gradients were run from 100:0 to 0:100 A:B for 27 minutes.
# WT-TTR [4] = biological target: T2, WT-TTR; assay: Acid-mediated WT-TTR fibril formation assay (turbidity at 400 nm); format: biochemical; conditions: WT-TTR 3.6 μM, % fibril formation after 72 hours; read-out: IC50 (apparent), inhibition of WT-TTR amyloidogenesis
# Procedure: The mixtures were vortexed and incubated (maintained) for 18 hours at 25° C.
# [5] = system: WT-TTR cytotoxicity in human IMR-32 neuroblastoma cells; conditions: cited from earlier work
# [6] = system: familial amyloid polyneuropathy (FAP); conditions: phase II/III placebo-controlled; cited from earlier work
# [7] = Photoisomerization upon irradiation (312 nm, 10 seconds); format: physicochemical; conditions: 312 nm
# Procedure: Although TTR can bind to small molecules composed of two aromatic rings when the tethered rings are up to 40° out of plane {based on TTR-stilbene crystal structures [Klabunde et al., Nat. Struct. Biol. 2000, 7, 312-321; Connelly et al., Curr. Opin. Struc. Biol. 2010, 20, 54-62; Johnson et al., J. Med. Chem. 2008, 51, 6348-6358; Choi et al., J. Am. Chem. Soc. 2010, 132, 1359-1370; Choi et al., Nat. Chem. Biol. 2010, 6, 133-139; Baures et al., Bioorg. Med. Chem. 1998, 6, 1389-1401; and Baures et al., Bioorg. Med. Chem. 1999, 7, 1339-1347]}, it would be energetically unfavorable to bind the excited singlet state in a conformation where the two aryl rings are oriented perpendicular to one another. Thus, we propose that the increase in fluorescence quantum yield of B2 from 0.09 in buffer to 0.55 in complex with TTR results from the resculpted excited singlet state energy surface of the stilbene in complex with TTR, such that the trans-conformer is the only state of relatively low potential energy [Gorner, H.; Kuhn, H. J. Adv, Photochem. 1995, 19, 1-117; Malkin et al., J. Phys. Chem. 1964, 68, 1153-1163; Saltiel, J. J. Am. Chem. Soc. 1967, 89, 1036-1037; Saltiel et al., J. Am. Chem. Soc. 1972, 94, 6445-6457; Saltiel et al., J. Am. Chem. Soc. 1979, 101, 2982-2996; and Saltiel et al., J. Am. Chem. Soc. 1968, 90, 4759-4760] inhibiting photoisomerization-based relaxation of B2. That B2 binding to TTR inhibits B2 photoisomerization is consistent with the observation that the irradiation of B2 in buffer (Life Technologies, TFX-35M, 312 nm) for 10 seconds affords 60% of the cis isomer, along with other minor photoreaction products, whereas irradiation of B2 bound to TTR yields only 20% cis isomer.
# It appears that the increase in fluorescence quantum yield of A2 from 0.00 in buffer to 0.27 in the TTR-(stilbene)n≦2 conjugate is only partly explained by the mechanism proposed for B2 [Gorner, H.; Kuhn, H. J. Adv, Photochem. 1995, 19, 1-117; Malkin et al., J. Phys. Chem. 1964, 68, 1153-1163; Saltiel, J. J. Am. Chem. Soc. 1967, 89, 1036-1037; Saltiel et al., J. Am. Chem. Soc. […]
# K15A-TTR [8] = biological target: T1, K15A-TTR; assay: Fluorimetric assay with recombinant K15A-TTR; format: binding; conditions: B2 7.2 μM
# Procedure: [The source words this procedure for another variant and says it was used here with some conditions changed.] The excitation spectra are shown with dotted traces (λmax=328 nm), and emission spectra are adjacently (λmax=384 nm). Very low fluorescence resulted from 328 nm excitation of stilbene Compounds 4 or 2 alone in buffer (FIGS. 4A and 4B; traces substantially on the X-axis).
# WT-TTR was expressed in an E. coli expression system and purified as described previously. [Lashuel et al., Biochemistry 1999, 38, 13560-13573] The covalent TTR modifiers (A1 or A2) or the non-covalent TTR ligand B2 (5 μL of a 1.44 mM solution in DMSO, final concentration: 7.2 μM) were added to 1 mL of a solution of WT-TTR homotetramer (0.2 mg/mL, 3.6 μM) in 10 mM phosphate, 100 mM KCl and 1 mM EDTA (pH 7.0 phosphate buffer) in a 2 mL Eppendorf tube. The samples were vortexed, and incubated for 18 h at 25° C. The fluorescence changes were monitored using a Varian Cary 50 spectrofluorometer at 20° C. in a 1 cm path length quartz cell. The excitation slit was set at 5 nm and the emission slit was set at […]. The samples were excited at 328 nm and the emission spectra were collected from 350 to 550 nm.
# WT-TTR was expressed and purified from an E. coli expression system as described previously. [Lashuel et al., Biochemistry 1999, 38:13560]. The covalent modifiers (Compounds 4 or 2) or the non-covalent TTR ligand Compound B2 (5 μL of a 1.44 mM solution in DMSO) were added to 1 mL of a solution of WT-TTR (0.2 mg/mL, 3.6 μM) in 10 mM phosphate, 100 mM KCl and 1 mM EDTA (pH 7.0) in a 2 mL Eppendorf tube. The samples were vortexed, and incubated for 18 hours at 25° C. The fluorescence changes were monitored using a Varian Cary 50 spectrofluorometer at 20° C. in a 1 cm path length quartz cell. The excitation slits was set at 5 nm and the emission slits was set at […]. The samples were excited at 328 nm and the emission spectra were collected from 330 to 550 nm (FIG. 4). The time-dependent fluorescence changes were monitored in similar manner (FIG. 5).
# [9] = Quantum yield measurement in buffer; format: physicochemical
# Procedure: (§5) The covalent TTR modifier A1 or A2 or the non-covalent TTR ligand B2 (15 μL of a 1.44 mM solution in DMSO, final concentration: 7.2 μM) was added to 3 mL of a solution of WT-TTR homotetramer (0.2 mg/mL, 3.6 μM) in 10 mM phosphate, 100 mM KCl and 1 mM EDTA (pH 7.0 phosphate buffer). The samples were vortexed, and incubated for 18 hours at 25° C. Quantum yields were measured by following the instructions at the web site: jobinyvon.com/usadivisions/Fluorescence/applications/quantumyieldstrad.pdf. Quinine bisulfate in 0.5 M H2SO4 was used as a reference for comparison (Φf=0.546). [Crosby et al., J. Phys. Chem. 1971, 75, 991-1024.]
# WT-TTR [10] = biological target: T2, WT-TTR; assay: Quantum yield measurement with WT-TTR; format: physicochemical; conditions: compound 7.2 μM
# Procedure: as §5
smiles,measurement,setting,value
"Cc1cc(/C=C/c2ccccc2)cc(C)c1O [Compound 9, reference compound]",cytotoxicity to IMR-32 cells in the absence of WT-TTR,"IMR-32 cells; human, IMR-32 neuroblastoma cells, 24 h, 8 µM",None of these compounds were cytotoxic to IMR-32 cells
same,inhibition of WT-TTR cytotoxicity to IMR-32 cells (in words),[1],clearly and dose-dependently inhibits IMR-32 cytotoxicity
same,stabilization of K15A-TTR (in words),K15A-TTR [2],additional stabilization of K15A-TTR was observed
Cc1cc(/C=C/c2ccc(C(=O)Oc3ccc(F)cc3)cc2)cc(C)c1O [Compound 7],modification yield of the WT-TTR subunits (in words),WT-TTR [3],lower modification yield
"Cc1cc(/C=C/c2ccc(C(=O)O)cc2)cc(C)c1O [Compound 8, reference compound]",cytotoxicity to IMR-32 cells in the absence of WT-TTR,IMR-32 cells,None of these compounds were cytotoxic to IMR-32 cells
same,IC50,WT-TTR [4],~3 µM
same,inhibition of WT-TTR cytotoxicity to IMR-32 cells (in words),[1],clearly and dose-dependently inhibits IMR-32 cytotoxicity
same,stabilization of K15A-TTR (in words),K15A-TTR [2],additional stabilization of K15A-TTR was observed
Oc1ccc(C=Cc2cc(O)cc(O)c2)cc1 [resveratrol],inhibition of amyloid-formation-associated cytotoxicity (literature),[5],known to inhibit amyloid-formation-associated cytotoxicity
O=C(O)c1ccc2nc(-c3cc(Cl)cc(Cl)c3)oc2c1 [Tafamidis],clinical efficacy in familial amyloid polyneuropathy,[6],halt the progression of familial amyloid polyneuropathy
"CCCNC(=O)c1cc(/C=C/c2cc(C)c(O)c(C)c2)cc(N(C)C)c1 [Compound B2, (E)-3-(dimethylamino)-5-(4-hydroxy-3,5-dimethylstyryl)-N-propylbenzamide]",% cis isomer after irradiation bound to TTR,[7],20%
same,% cis isomer after irradiation in buffer,[7],60%
same,increase in fluorescence intensity upon binding to K15A-TTR (B2),K15A-TTR [8],approximately 4 fold
same,fluorescence quantum yield in buffer,[9],0.09
same,fluorescence quantum yield in complex or conjugate with TTR,WT-TTR [10],0.55

# Reference: patent US8703815B2, “Small molecules that covalently modify transthyretin” (The Scripps Research Institute, priority 2009, dated 2014)
